Data set [1] deals with Alpha-1-acid glycoprotein 1 (Homo sapiens, UniProt P02763). Kind of data set: Binding affinity to human alpha1-acid glycoprotein at 30 uM.
The species named for data set [2] is Homo sapiens. Briefly: Binding affinity to human alpha1-acid glycoprotein F1-S variant at 30 uM.
The species entered for data set [3] is Homo sapiens. Kind of data set: Binding affinity to human alpha1-acid glycoprotein F1-S variant at 60 uM.
For data set [4], the species on record is Homo sapiens. Kind of data set: Binding affinity to human alpha1-acid glycoprotein A variant at 30 uM.
The species named for data set [5] is Homo sapiens. Briefly: Binding affinity to human alpha1-acid glycoprotein A variant at 60 uM.
Another data set addresses Albumin (Homo sapiens, UniProt P02768). Kind of data set: Binding affinity to 30 uM human serum albumin at 30 uM.

Albumin, sequence (P02768 whole entry): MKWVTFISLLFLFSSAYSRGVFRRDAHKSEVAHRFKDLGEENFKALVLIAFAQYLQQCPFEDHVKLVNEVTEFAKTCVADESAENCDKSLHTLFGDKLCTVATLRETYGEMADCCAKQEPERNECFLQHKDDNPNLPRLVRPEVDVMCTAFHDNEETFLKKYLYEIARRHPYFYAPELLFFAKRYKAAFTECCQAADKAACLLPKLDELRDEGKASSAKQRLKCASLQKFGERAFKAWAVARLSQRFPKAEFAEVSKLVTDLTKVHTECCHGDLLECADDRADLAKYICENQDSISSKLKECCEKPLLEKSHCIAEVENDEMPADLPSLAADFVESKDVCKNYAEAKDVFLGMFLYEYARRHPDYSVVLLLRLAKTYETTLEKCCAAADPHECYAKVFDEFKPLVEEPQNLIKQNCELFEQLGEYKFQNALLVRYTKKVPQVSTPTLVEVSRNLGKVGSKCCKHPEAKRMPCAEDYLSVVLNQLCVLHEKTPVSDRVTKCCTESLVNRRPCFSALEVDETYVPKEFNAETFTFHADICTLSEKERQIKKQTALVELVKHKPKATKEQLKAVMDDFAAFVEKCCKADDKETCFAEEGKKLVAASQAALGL
Alpha-1-acid glycoprotein 1, sequence (P02763 whole entry): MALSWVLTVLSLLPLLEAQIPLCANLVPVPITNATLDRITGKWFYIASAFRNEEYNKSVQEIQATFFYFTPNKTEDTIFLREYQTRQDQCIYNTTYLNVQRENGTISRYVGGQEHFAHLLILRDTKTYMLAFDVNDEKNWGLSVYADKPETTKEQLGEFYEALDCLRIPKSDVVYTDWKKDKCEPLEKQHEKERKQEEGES

For the compound `CN1C(=O)CN=C(c2ccccc2)c2cc(Cl)ccc21` [DIAZEPAM], the Activity is 10 µM in data set [1]; 9 µM in the data set filed under Homo sapiens [2]; 12 µM in the data set filed under Homo sapiens [3]; 12 µM in the data set filed under Homo sapiens [4]; 17 µM in the data set filed under Homo sapiens [5].
Turning to `CC1(C)N=C(c2ccccc2)c2cc(Cl)ccc2NC1=O`, the Activity is 13 µM in data set [1], 13 µM at Albumin, 9 µM in the data set filed under Homo sapiens [2] and 12 µM in the data set filed under Homo sapiens [4].
On to `CN1C(=O)C(C)(C)N=C(c2ccccc2)c2cc(Cl)ccc21`, for which the Activity came out at 14 µM in data set [1] and 17 µM at Albumin.
Take `O=C1CN=C(c2ccccc2)c2cc(Cl)ccc2N1` [NORDAZEPAM]: the results for the Activity (in data set [1]; at Albumin) were 9 µM and 17 µM, respectively.

The record behind these values is ChEMBL document CHEMBL1143698, “Conformation selectivity in the binding of diazepam and analogues to alpha1-acid glycoprotein” (Bioorg Med Chem, 2007).
